From publication PMC11187126, “Structure and dynamics of the pyroglutamylated RF-amide peptide QRFP receptor GPR103” (Nature Communications, 2024) come the findings set out here.

Where two headings read alike, the source gives them in different places. No end group written: not given here.

This assay addresses T1, GPR103 C327^7.48A (Homo sapiens, UniProt Q96P65, C327A).
T1 construct: we used human full-length QRFPR-encoding plasmids; expressed in transfected cells; host or cells: HEK293 cells (HEK293A in the flow cytometry section), pCAGGS vector
T1 sequence (Q96P65 1-431 C327A): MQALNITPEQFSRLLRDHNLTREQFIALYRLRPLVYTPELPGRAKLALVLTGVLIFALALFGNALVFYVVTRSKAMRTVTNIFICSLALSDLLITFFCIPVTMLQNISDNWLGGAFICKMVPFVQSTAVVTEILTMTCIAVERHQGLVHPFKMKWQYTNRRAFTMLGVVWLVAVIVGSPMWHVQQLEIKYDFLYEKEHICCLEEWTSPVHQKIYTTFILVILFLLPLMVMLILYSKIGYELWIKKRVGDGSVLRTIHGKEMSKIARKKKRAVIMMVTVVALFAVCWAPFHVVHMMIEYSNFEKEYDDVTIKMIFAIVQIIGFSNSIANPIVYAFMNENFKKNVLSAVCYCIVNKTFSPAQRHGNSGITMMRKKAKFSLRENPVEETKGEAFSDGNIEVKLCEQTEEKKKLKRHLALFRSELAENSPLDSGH
As to the kind of experiment: TGFα shedding assay; Exp. level WT (1:5). Type of assay: cell-based. How it is done: For the TGFα shedding assay and the flow cytometry analysis, we used human full-length QRFPR-encoding plasmids. Specifically, GPR103 was N-terminally modified with an HA signal sequence followed by a FLAG epitope and then a flexible linker ([…]; the FLAG epitope is underlined) and inserted into the pCAGGS vector. Plasmid encoding GPR103 mutants were generated using Quickchange Site-Directed Mutagensis kit (Agilent).
The TGFα shedding assay was performed as described previously with minor modifications. Plasmid transfection was performed in a 6-well plate with a mixture of 500 ng (per well in a 6-well plate) AP-TGFα-encoding plasmid and 200 ng GPR103-encoding plasmid. After 1-day culture, the transfected cells were harvested by trypsinization, pelleted by centrifugation at 190 × g for 5 min, and washed once with 5 mM HEPES (pH 7.4)-containing Hank’s Balanced Salt Solution (HBSS). After centrifugation, the cells were resuspended in 8 mL of the HEPES-containing HBSS. The cell suspension was seeded in a 96-well culture plate (cell plate) at a volume of 90 μL (per well hereafter) and incubated in a 37 °C incubator with 5% CO2 for 30 min. […] After spinning the cell plates at 190 × g for 2 min, 80 μL of conditioned media was transferred to an empty 96-well plate (conditioned media (CM) plate). Then, 80 μL of AP reaction solution (10 mM p-nitrophenylphosphate (p-NPP), 120 mM Tris-HCl (pH 9.5), 40 mM NaCl, and 10 mM MgCl2) was dispensed into the cell plates and the CM plates. Absorbance at 405 nm of the plates was measured using a microplate reader (SpectraMax 340 PC384, Molecular Devices) before and after 1-h incubation at room temperature. Ligand-induced AP-TGFα release was calculated by subtracting spontaneous AP-TGFα release signal from ligand-induced AP-TGFα release signal. The AP-TGFα release signals were fitted to a four-parameter sigmoidal concentration–response curve, using the Prism 10 software (GraphPad Prism). For each replicate experiment, the pEC50 parameter (negative logarithmic values of EC50 values) of the individual GPR103 mutants were normalized to that of the wild-type GPR103 performed in parallel, and resulting ∆pEC50 values were used to denote ligand response activity of the mutants. […]
Exp. le vel: WT (1:5 0)Exp. le vel: WT (1:5 0)Exp. le vel: WT (1:5 0)Exp. le vel: WT (1:2 0)Exp. le vel: WT (1:2 0)Exp. le vel: WT (1:1 0) […]
L1 4N - t e r mA F2 5N - t e r mA I 2 6N - t e r mA Y 2 9N - t e r mA C 9 82 .5 7A T10 22 .6 1A Exp . l eve l: WT (1 :5)Exp . l evel : >WT (1 :1)Exp. le vel: WT (1:2 0)Exp. le vel: WT (1:2 0)Exp. le vel: WT (1:5 0)Exp . l eve l: WT (1 :1) […]
Exp. le vel: WT (1:1 0)Exp. le vel: WT (1:2 0) C 1 1 83 .2 5AExp. le vel: WT (1:5 0)Exp. le vel: WT (1:5 0)Exp. le vel: WT (1:2 0)Exp . l eve l: WT (1 :5) […]
Exp. le vel: WT (1:5 0)Exp. le vel: WT (1:1 0)Exp. le vel: WT (1:5 0) E203ECL2AExp . l evel : >WT (1 :1)Exp. le vel: WT (1:5 0)Exp. le vel: WT (1:5 0) […]
Exp . l eve l: WT (1 :1) F28Exp. le vel: WT (1:5 0) C 2 8 56 .4 7AExp. le vel: WT (1:2 0) WExp. le vel: WT (1:2 0) F28Exp. le vel: WT (1:5 0)Exp . l evel : >WT (1 :1) […]
Exp. le vel: WT (1:5 0)Exp. le vel: WT (1:5 0) C 3 2 77 .4 8AExp . l eve l: WT (1 :5)Exp . l evel : >WT (1 :1)Exp . l evel : >WT (1 :1) […]
Suppl eme nt ary Figure 1 | Mutational analysis of GPR103. […]
mutants. Data are presented as mean values ± SEM, normally n=3-5; dots), each performed in triplicate. b-d Cell-surface expression (b) and QRFP26-in-duced activation of GPR103 (c, d) were analyzed by the flow cytometry and the TGFα shedding assay, respectively. From the concentration–response curves (a), Emax (c) and ΔpEC50 (d) values relative to the wild type were calculated. Colors in the mutant bars indicate an expression level matching to that of titrated wild type. Statistical analyses were performed using the ordinary one-way ANOVA followed by Dunnett tests with the expression-matched […]

Regarding TSGPLGNLAEELNGYSRKKGGFSFRF-NH2 [QRFP26], the Emax runs as follows: (Exp. #1) 95.99 % WT; (Exp. #2) 96.35 % WT; (Exp. #3) 104.77 % WT; (mean, read-out: Emax) 99%; (n = 3, read-out: Emax) 104 ± 2.3%. In addition, the EC50 (n = 3) was 4.27 nM.

What is called EC50 is the concentration needed to bring the measured effect to its halfway point.
